{
  "source": "patent US4080467A",
  "about": "“Pharmaceutical compositions comprising 1,3-dithiolan-2-ylidene malonate derivatives” (Nihon Nohyaku Co., Ltd., priority 1976, dated 1978)",
  "key": {"[1]": {"tested_on": "fatty liver (ethionine)", "experiment": "Effect on fatty liver (ethionine model)", "type": "in vivo, male mice (4 week-old, dd-strain)", "conditions": "diet plus 0.2% ethionine and 0.2% compound, 5 days", "from_the_text": "There are known many factors inducing fatty liver. But, the fatty liver is grouped into a couple of patterns from the mechanism of lipid accumulation or metabolism of lipoprotein in the liver. Ethionine is a typical compound inducing fatty liver. It inhibits RNA and protein syntheses and destructs polysome of the liver cell. Fatty liver is induced by the inhibition of protein synthesis and the disturbance of lipoprotein secretion.\nUsually, fatty liver is closely related to the accumulation of triglyceride in the liver. In the present example, the degree of fatty liver and protective or therapeutic effect against the fatty liver was evaluted by measurement of triglyceride content in the liver.\nThe animals used in the test were 4 week-old male mice (dd-strain).\nThe mice were submitted for 5 days to a normal diet (control), to the normal diet plus 0.2% ethionine (positive control), to the normal diet plus 0.2% ethionine and 0.2% of the compound of this invention, or to the normal diet plus 0.2% ethionine and 0.2% methionine which was the referential diet. At the end of the period of 5 days, content of triglyceride in the liver was studied colorimetrically by chromotropic acid method and the result was represented as triolein content (mg/g-liver)."}, "[2]": {"tested_on": "acute liver damage associated with discrete lobular necrosis (D-galactosamine)", "experiment": "Protective effect on acute hepatitis with mesenchymal reaction and discrete lobular necrosis (D-galactosamine model)", "type": "in vivo, male rat (SD strain)", "conditions": "100 mg/kg oral 6 h before D-galactosamine", "procedure": "D-Galactosamine is a compound which induces a discrete lobular necrosis associated with mesenchymal reaction similar to the change observed in human viral hepatitis, so that it is frequently used in producing a model for viral hepatitis.\nThe compound of this invention or anethol trithion was administered orally to the male rat (SD strain) at the dose of 100 mg/kg. Six hours after it, D-galacetosamine was intraperitoneally administered at the dose of 600 mg/kg. Four hours after it, an additional 300 mg/kg was administered intraperitoneally. Eight hours after it, the animals were sacrificed to collect the blood samples. P-GPT activity and triglyceride in the liver were measured to evaluate the effect of the compound of this invention."}, "[3]": {"experiment": "Effect on glucose metabolism (blood sugar after glucose load)", "type": "in vivo, mice", "conditions": "for Blood Sugar: 250 mg/kg oral 6 h before glucose 4.0 g/kg", "procedure": "The test compounds dissolved in olive oil and administered orally at the dose of 250 mg/kg to the mice. After 6 hours, 4.0 g/kg of glucose was orally administered. The same amount of glucose was given to the control animals. 0.02 ml of blood was taken from caudal vein of the mice at 30, 60, 90 and 120 min. after glucose administration. Blood sugar was measured by the procedure of Somogyi-Nelson. Number of animals used was 5 to 6 mice for each treatment."}, "[4]": {"experiment": "Acute oral toxicity to male mice (LD50)", "conditions": "mouse, in vivo"}, "[5]": {"tested_on": "Acute Liver Damage associated with Centrilobular Necrosis (carbon tetrachloride)", "experiment": "Protective effect on acute liver damage associated with centrilobular necrosis (carbon tetrachloride model)", "type": "in vivo, mice (four-week-old male, dd strain)", "conditions": "250 mg/kg oral 6 h before CCl4, average of 5 to 6 mice"}, "[6]": {"tested_on": "acute liver damage associated with periportal necrosis (allyl alcohol)", "experiment": "Protective effect on acute liver damage associated with periportal necrosis (allyl alcohol model), BSP test", "type": "in vivo, male mouse (4 week-old dd-strain)", "conditions": "100 mg/kg oral 6 h before allyl alcohol 0.075 ml/kg; 24 h after", "procedure": "The compound of this invention or anethol trithion was orally administered to the male mouse (4 week-old dd-strain) at the dose of 100 mg/kg. Six hours after it, allyl alcohol was orally administered at the dose of 0.075 ml/kg. Twenty four hours after it, the animals were sacrificed to collect blood samples. The residual quantity of BSP was measured by BSP test, from which the protective effect of the compound of this invention was evaluated."}},
  "data": [
    {"smiles": "CC(C)OC(=O)C(C(=O)OC(C)C)=C1SCCS1", "note": "[Compound 4, Diisopropyl 1,3-dithiolan-2-yliden malonate]", "values": [
      {"measurement": "Triglyceride (content in the liver, as triolein)", "setting": "[1]", "value": "10.4 ± 1.6", "unit": "mg/g"},
      {"measurement": "Triglyceride in liver", "setting": "[2]", "value": "4.6 ± 0.73", "unit": "mg/g"},
      {"measurement": "p-GPT", "setting": "[2]", "value": "63±23", "unit": "Karmen unit"},
      {"measurement": "Blood Sugar (percent of 0 min value)", "setting": "[3]; 0 min", "value": 100, "unit": "%"},
      {"measurement": "Blood Sugar", "setting": "[3]; 0 min", "value": "134 ± 24.8", "unit": "mg/dL"},
      {"measurement": "Blood Sugar", "setting": "[3]; 30 min", "value": "258 ± 22.2", "unit": "mg/dL"},
      {"measurement": "Blood Sugar", "setting": "[3]; 60 min", "value": "232 ± 13.0", "unit": "mg/dL"},
      {"measurement": "Blood Sugar", "setting": "[3]; 90 min", "value": "190 ± 23.6", "unit": "mg/dL"},
      {"measurement": "Blood Sugar", "setting": "[3]; 120 min", "value": "152 ± 23.4", "unit": "mg/dL"},
      {"measurement": "Blood Sugar (percent of 0 min value)", "setting": "[3]; 30 min", "value": 192, "unit": "%"},
      {"measurement": "Blood Sugar (percent of 0 min value)", "setting": "[3]; 60 min", "value": 173, "unit": "%"},
      {"measurement": "Blood Sugar (percent of 0 min value)", "setting": "[3]; 90 min", "value": 142, "unit": "%"},
      {"measurement": "Blood Sugar (percent of 0 min value)", "setting": "[3]; 120 min", "value": 113, "unit": "%"},
      {"measurement": "LD50", "setting": "[4]", "value": 1350, "unit": "mg/kg"},
      {"measurement": "p-GPT (plasma glutamic-pyruvic transaminase activity)", "setting": "[5]; 24 h after CCl4, values over 1,000 regarded as 1,000", "value": 23, "unit": "Karmen units"},
      {"measurement": "Liver Damage Index", "setting": "[5]; 0 normal, 2 slightly recognized, 4 clearly observable damage, 6 heavy damage", "value": 0.2},
      {"measurement": "Index of hepatotoxicity: BSP (residual quantity of BSP)", "setting": "[6]", "value": "16±2.3"}
    ]}
  ]
}
